Data as given in patent US20130045869A1, “COMPLEXES OF HERBICIDAL CARBOXYLIC ACIDS AND AMINE-CONTAINING POLYMERS OR OLIGOMERS” (Dow AgroSciences LLC, priority 2011, published 2013).

Tests used:
[1] = Eye irritation testing; format: in vivo, New Zealand albino rabbit; details: 456 gae/L, 21 days after application, most sensitive animal; for Eye irritation score, Iris: maximum 2; for Eye irritation score, Cornea: maximum 4; for Eye irritation score, Conjunctivae: maximum 10
Method: Eye irritation testing was done according to guideline testing requirements specified in: (1) OECD Guideline for the Testing of Chemicals, Procedure 405 (2002), (2) U.S. EPA Health Effects Test Guidelines, OPPTS 870.2400 (1998), (3) JMAFF 12-Nouan-1847 (2000) and (4) Official Journal of the European Communities, Methods for the Determination of Toxicity, Part B.5 (Eye Irritation), Directive 2004/73/ED, 29 Apr. 2004.
Test material formulations were administered to New Zealand albino rabbit (1 to 3 animals per formulation) to determine the potential to produce eye irritation. The material was applied in a single dose to the conjuctival sac of one eye of each animal. The other eye remained untreated and served as a control. Irritation of the cornea, iris and conjunctivae were evaluated 21 days after application of the test material.
The results are reported as irritation present in the cornea, iris and conjunctivae in the most sensitive animal 21 days after application. Testing was conducted with the following concentrates: (1) 2,4-D PEI complex (Lupasol® G20 complex, 456 grams acid equivalent per liter (gae/l)), (2) 2,4-D DMA (dimethyl ammonium salt, 456 gae/l), (3) 2,4-D DMEA (dimethylethyl ammonium salt, 456 gae/l), (4) 2,4-D IPA (isopropyl ammonium salt, 456 gae/l), and (5) 2,4-D TIPA (triisopropanol ammonium salt, 456 gae/l).

[2] = Relative volatility by thermo-gravimetric analysis; format: physicochemical; details: TGA at 120° C.
Method: Using a TA Instruments (New Castle, Del.) Model TGA 2050 thermo-gravimetric analyzer, a typical thermo-gravimetric analysis (TGA) is carried out by (a) weighing out 10-20 mg of the sample, (b) loading it into an aluminum or platinum holding pan, and (c) measuring and recording the mass loss of the sample over time at a constant temperature of 120° C. The volatility of the sample is obtained as the rate of mass loss per unit time when the loss rate becomes constant (reaches steady state).
Relative volatility is defined as the ratio of the volatility of a given 2,4-D or triclopyr sample over that of the corresponding 2,4-D DMA or triclopyr triethylamine salt that was arbitrarily set at 100.

[3] = ratio to 2,4-D DMA salt set at 100
[4] = ratio to triclopyr triethylamine salt set at 100

| Structure (SMILES) | Eye irritation score, Iris [1] | Eye irritation score, Cornea [1] | Eye irritation score, Conjunctivae [1] | Relative volatility [2, 3] | Relative volatility [2, 4] |
| --- | --- | --- | --- | --- | --- |
| CC(C)N.O=C(O)COc1ccc(Cl)cc1Cl [2,4-D IPA] | 0 | 4 | 6 | – | – |
| CC(O)CN(CC(C)O)CC(C)O.O=C(O)COc1ccc(Cl)cc1Cl (stereo not drawn) [2,4-D TIPA] | 0 | 3 | 1 | – | – |
| CNC.O=C(O)COc1ccc(Cl)cc1Cl [2,4-D DMA salt, 2,4-D dimethylamine (DMA) salt] | 1 | 3 | 3 | 100 | – |
| CCCCOCCOC(=O)COc1nc(Cl)c(Cl)cc1Cl [triclopyr butoxyethyl ester] | – | – | – | – | 302 |
| O=C(O)COc1nc(Cl)c(Cl)cc1Cl [triclopyr acid] | – | – | – | – | 135 |
| O=C(O)COc1ccc(Cl)cc1Cl [2,4-D acid tech, 2,4-dichlorophenoxyacetic acid] | – | – | – | 249 | – |
| CCCCC(CC)COC(=O)COc1ccc(Cl)cc1Cl (stereo not drawn) [2,4-D ethylhexyl ester] | – | – | – | 1201 | – |
| CCN(CC)CC.O=C(O)COc1nc(Cl)c(Cl)cc1Cl [triclopyr triethylamine salt] | – | – | – | – | 100 |
